Data taken from US8846103B2, “Exogenously triggered controlled release materials and uses thereof” (SmartCells, Inc., priority 2009, dated 2014).

Key:
non-diabetic SD rats = type: in vivo, Sprague Dawley (SD) rats
Procedure: FIG. 3: (a) Plot of (♦) serum insulin and (◯) blood glucose levels following subcutaneous injection in non-diabetic SD rats at time 0 with TSB-C4-AEBM-2-insulin/native Con A (an α-methyl mannose-responsive material). An i.p. injection of α-methyl mannose was administered at 120 min as indicated by the *.
0.300 ml of the formulation prepared in Example 1 was injected subcutaneously into each of three normal male Sprague Dawley (SD) rats (Charles River Laboratories, Wilmington, Mass.) weighing between 400 and 500 g. Prior to formulation injection, blood glucose values were measured via tail vein bleeding using a Precision Xtra glucometer (Abbott Laboratories, Alameda, Calif.) and approximately 100 ul of serum was obtained via tail vein bleeding to assay for background insulin levels. Food was removed from the rat cages during the duration of the study. Serum and blood glucose values were obtained at 30 min, 60 min, 90 min, and 120 min post-injection. At 120 min after the injection, an intraperitoneal injection of a 25% w/v α-methyl-mannose solution was injected to provide a 2 g/kg dose after which serum and blood glucose values were obtained at 135 min, 150 min, 180 min, 210 min, 240 min, and 300 min.

concanavalin A (Con A) = concanavalin A (Con A) (Canavalia ensiformis, UniProt P02866); conditions: higher affinity than glucose; cited from earlier work

Compound | conjugate release at physiologically normal blood glucose levels (background release) (non-diabetic SD rats; rat, in vivo, sc) | response to exogenous α-methyl-mannose (non-diabetic SD rats; summary statement on Examples 1-2) | affinity for Con A relative to endogenous glucose (concanavalin A (Con A))
exemplary conjugate with two AEBM affinity ligands: Conjugate with TSB-C4 as the scaffold, AEBM as the affinity ligand, insulin (conjugated at Phe-B1) as the drug | very little background release | significant response | –
COC1O[C@H](CO)[C@@H](O)[C@H](O)[C@@H]1O (stereo partly drawn) [α-methyl-mannose] | – | – | about 40 fold
